Laboratory results published in ChEMBL document CHEMBL1147815, “Stilbene-based anticancer agents: resveratrol analogues active toward HL60 leukemic cells with a non-specific phase mechanism” (Bioorg Med Chem Lett, 2006).
Active and inactive are the calls of the source. No cut-off for these calls is given here.

Experiments:
Format in all cases: functional, cell-based
HL-60 [1] = experiment: Apoptosis inducing activity in human HL60 cells
HL-60 [2] = experiment: Antiproliferative activity against human HL60 cells
HL-60 [3] = experiment: Induction of apoptotic sub-G0/G1 phase in HL60 cells; settings: Homo sapiens
HL-60 [4] = experiment: Induction of partial block of S phase in HL60 cells; settings: Homo sapiens
HL-60 [5] = experiment: Decrease of HL60 cells at G2/M phase; settings: Homo sapiens
HL-60 [6] = experiment: Decrease of HL60 cells at G0/G1 phase; settings: Homo sapiens
HL-60 [7] = experiment: Decrease of HL60 cells at S phase; settings: Homo sapiens

Cc1ccc(/C=C/c2ccc(O)cc2)cc1C
AC50 (HL-60 [1]): 6 µM
IC50 (HL-60 [2]): 3.5 µM

O=[N+]([O-])c1ccc(/C=C/c2ccc(O)cc2)cc1
AC50 (HL-60 [1]): 4.8 µM
IC50 (HL-60 [2]): 2.5 µM
Activity (HL-60 [3]): Active
Activity (HL-60 [4]): Active

COc1ccc(/C=C/c2cc(OC)cc(OC)c2)cc1
Activity (HL-60 [3]): Active
Activity (HL-60 [4]): Active

COc1cccc(/C=C/c2cc(OC)cc(OC)c2)c1
AC50 (HL-60 [1]): 70 µM
IC50 (HL-60 [2]): 37 µM

COc1cc(/C=C/c2cc(OC)c(OC)c(OC)c2)cc(OC)c1
AC50 (HL-60 [1]): 42 µM
IC50 (HL-60 [2]): 22 µM

COc1cc(/C=C\c2cc(OC)c(OC)c(OC)c2)cc(OC)c1
AC50 (HL-60 [1]): 2.6 µM
IC50 (HL-60 [2]): 1.8 µM
Activity (HL-60 [3]): Active
Activity (HL-60 [4]): Active

COc1cccc(/C=C\c2cc(OC)cc(OC)c2)c1
AC50 (HL-60 [1]): 5.4 µM
IC50 (HL-60 [2]): 2.8 µM

COc1ccc(/C=C\c2cc(OC)cc(OC)c2)cc1 [8Z-3,4',5-TRIMETHOXYSTILBENE]
Activity (HL-60 [5]): Active
AC50 (HL-60 [1]): 0.24 µM
Activity (HL-60 [6]): Active
IC50 (HL-60 [2]): 0.15 µM
Activity (HL-60 [3]): Active
Activity (HL-60 [7]): Active
